US20260347338A1, “PYRIMIDINE/PYRIDINE DERIVATIVES OR SALTS THEREOF AND PHARMACEUTICAL COMPOSITIONS COMPRISING THE SAME” (YUHAN CORPORATION, priority 2023, published 2026)
Counter-ions that a name gives are not always drawn.

These compounds were tested against T1, human recombinant HPK1 (Homo sapiens, UniProt Q92918) (assay: Inhibitory activity against human recombinant HPK1 (TR-FRET)). Conditions: ULight-p70S6K peptide, ATP at Km, room temperature, 1 hour, 0.32 to 1000 nM compound.
T1 construct: purchased BPS Bioscience
Format: biochemical
Procedure, shortened: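 Recombinant human HPK1 with ULight-p70S6K peptide and ATP at Km, 1 h at room temperature in HEPES pH 7.4 buffer with Mg2+, Mn2+, EGTA, DTT; compounds 0.32–1000 nM final. EDTA stop, Eu-anti-phosphopeptide TR-FRET read (665 nm); IC50 from % inhibition versus DMSO, binned A–D at 10, 50, 100 nM.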

T1 sequence (Q92918 whole entry): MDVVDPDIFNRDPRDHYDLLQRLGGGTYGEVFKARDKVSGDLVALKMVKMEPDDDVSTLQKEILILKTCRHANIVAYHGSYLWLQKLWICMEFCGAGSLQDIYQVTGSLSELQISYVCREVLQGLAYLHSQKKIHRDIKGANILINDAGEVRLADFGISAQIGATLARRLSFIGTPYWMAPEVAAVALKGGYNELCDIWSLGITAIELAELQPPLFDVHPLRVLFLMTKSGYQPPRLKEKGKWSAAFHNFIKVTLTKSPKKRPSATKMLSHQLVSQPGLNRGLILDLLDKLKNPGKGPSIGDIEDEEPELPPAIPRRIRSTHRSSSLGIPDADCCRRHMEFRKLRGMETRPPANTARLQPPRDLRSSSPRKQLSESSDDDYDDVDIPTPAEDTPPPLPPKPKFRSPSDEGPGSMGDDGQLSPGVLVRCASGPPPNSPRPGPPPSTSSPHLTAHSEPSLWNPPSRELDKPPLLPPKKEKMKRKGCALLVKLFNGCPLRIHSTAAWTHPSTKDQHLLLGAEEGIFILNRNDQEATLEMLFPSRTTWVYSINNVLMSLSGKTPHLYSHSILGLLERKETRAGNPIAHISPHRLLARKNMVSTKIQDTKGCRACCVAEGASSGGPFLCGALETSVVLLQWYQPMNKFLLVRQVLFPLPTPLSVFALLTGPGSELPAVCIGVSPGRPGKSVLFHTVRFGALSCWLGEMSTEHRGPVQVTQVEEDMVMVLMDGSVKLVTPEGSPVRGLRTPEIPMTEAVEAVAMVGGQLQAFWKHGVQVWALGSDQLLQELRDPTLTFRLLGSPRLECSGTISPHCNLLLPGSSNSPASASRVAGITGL

IC50, ≤ 10 nM:
COc1cccc(F)c1-c1nccc(Nc2cc(N3CCC[C@H](N)C3)c(-c3ccc(F)c(C)c3)cn2)n1 [Example 282, (S)-N-(4-(3-aminopiperidin-1-yl)-5-(4-fluoro-3-methylphenyl)pyridin-2-yl)-2-(2-fluoro-6-methoxyphenyl)pyrimidin-4-amine hydrochloride]
COc1cccc(F)c1-c1nccc(Nc2cc(N3CCC[C@H](N)C3)c(-c3cnn(C4CCNCC4)c3)cn2)n1 [Example 283, (S)-N-(4-(3-aminopiperidin-1-yl)-5-(1-(piperidin-4-yl)-1H-pyrazol-4-yl)pyridin-2-yl)-2-(2-fluoro-6-methoxyphenyl)pyrimidin-4-amine hydrochloride]
COc1cccc(F)c1-c1nccc(Nc2cc(N3CCC[C@H](N)C3)c(-c3cc(C)c(OC(C)C)c(C)c3)cn2)n1 [Example 284, (S)-N-(4-(3-aminopiperidin-1-yl)-5-(4-isopropoxy-3,5-dimethylphenyl)pyridin-2-yl)-2-(2-fluoro-6-methoxyphenyl)pyrimidin-4-amine hydrochloride]
COc1cccc(F)c1-c1nccc(Nc2cc(N3CCC[C@H](N)C3)c(-c3cc(C)c(OC)c(C)c3)cn2)n1 [Example 285, (S)-N-(4-(3-aminopiperidin-1-yl)-5-(4-methoxy-3,5-dimethylphenyl)pyridin-2-yl)-2-(2-fluoro-6-methoxyphenyl)pyrimidin-4-amine hydrochloride]
COc1cccc(F)c1-c1nccc(Nc2cc(N3CCC[C@H](N)C3)c(-c3ccc(N4CCOCC4)cc3)cn2)n1 [Example 286, (S)-N-(4-(3-aminopiperidin-1-yl)-5-(4-morpholinophenyl)pyridin-2-yl)-2-(2-fluoro-6-methoxyphenyl)pyrimidin-4-amine hydrochloride]
COc1cccc(F)c1-c1nccc(Nc2cc(N3CCC[C@H](N)C3)c(-c3ccc(N4CCOCC4)c(C)c3)cn2)n1 [Example 287, (S)-N-(4-(3-aminopiperidin-1-yl)-5-(3-methyl-4-morpholinophenyl)pyridin-2-yl)-2-(2-fluoro-6-methoxyphenyl)pyrimidin-4-amine hydrochloride]
COc1cccc(F)c1-c1nccc(Nc2cc(N3CCC[C@H](N)C3)c(-c3ccc(C(=O)N4CCN(CCO)CC4)cc3)cn2)n1 [Example 288, (S)-(4-(4-(3-aminopiperidin-1-yl)-6-((2-(2-fluoro-6-methoxyphenyl)pyrimidin-4-yl)amino)pyridin-3-yl)phenyl)(4-(2-hydroxyethyl)piperazin-1-yl)methanone hydrochloride]
COc1cccc(F)c1-c1nccc(Nc2cc(N3CCC[C@H](N)C3)c(-c3ccc(C(=O)N[C@H]4CC[C@H](O)CC4)cc3)cn2)n1 [Example 289, 4-(4-((S)-3-aminopiperidin-1-yl)-6-((2-(2-fluoro-6-methoxyphenyl)pyrimidin-4-yl)amino)pyridin-3-yl)-N-((1r,4S)-4-hydroxycyclohexyl)benzamide hydrochloride]
COc1cccc(F)c1-c1nccc(Nc2cc(N3CCC[C@H](N)C3)c(-c3ccc(C(=O)N(C)C)c(F)c3)cn2)n1 [Example 290, (S)-4-(4-(3-aminopiperidin-1-yl)-6-((2-(2-fluoro-6-methoxyphenyl)pyrimidin-4-yl)amino)pyridin-3-yl)-2-fluoro-N,N-dimethylbenzamide hydrochloride]
COc1cccc(F)c1-c1nccc(Nc2cc(N3CCC[C@H](N)C3)c(-c3cccc(C(C)=O)c3)cn2)n1 [Example 291, (S)-1-(3-(4-(3-aminopiperidin-1-yl)-6-((2-(2-fluoro-6-methoxyphenyl)pyrimidin-4-yl)amino)pyridin-3-yl)phenyl)ethan-1-one hydrochloride]
COc1cccc(F)c1-c1nccc(Nc2cc(N3CCC[C@H](N)C3)c(-c3ccc(F)c(Cl)c3)cn2)n1 [Example 292, (S)-N-(4-(3-aminopiperidin-1-yl)-5-(3-chloro-4-fluorophenyl)pyridin-2-yl)-2-(2-fluoro-6-methoxyphenyl)pyrimidin-4-amine hydrochloride]
COc1cccc(F)c1-c1nccc(Nc2cc(N3CCC[C@H](N)C3)c(-c3ccc(F)c(C(F)(F)F)c3)cn2)n1 [Example 293, (S)-N-(4-(3-aminopiperidin-1-yl)-5-(4-fluoro-3-(trifluoromethyl)phenyl)pyridin-2-yl)-2-(2-fluoro-6-methoxyphenyl)pyrimidin-4-amine hydrochloride]
COc1cccc(F)c1-c1nccc(Nc2cc(N3CCC[C@H](N)C3)c(-c3ccc(F)c(F)c3)cn2)n1 [Example 294, (S)-N-(4-(3-aminopiperidin-1-yl)-5-(3,4-difluorophenyl)pyridin-2-yl)-2-(2-fluoro-6-methoxyphenyl)pyrimidin-4-amine hydrochloride]
COc1cccc(F)c1-c1nccc(Nc2cc(N3CC[C@@H](N)[C@H](O)C3)c(-c3cnn(C(F)F)c3)cn2)n1 [Example 295, (3R,4R)-4-amino-1-(5-(1-(difluoromethyl)-1H-pyrazol-4-yl)-2-((2-(2-fluoro-6-methoxyphenyl)pyrimidin-4-yl)amino)pyridin-4-yl)piperidin-3-ol]
COc1cccc(F)c1-c1nccc(Nc2cc(N3CCC[C@H](N)C3)c(-c3ccc(F)c(N(C)C)c3)cn2)n1 [Example 296, (S)-N-(4-(3-aminopiperidin-1-yl)-5-(3-(dimethylamino)-4-fluorophenyl)pyridin-2-yl)-2-(2-fluoro-6-methoxyphenyl)pyrimidin-4-amine hydrochloride]
COc1cccc(F)c1-c1nccc(Nc2cc(N3CC[C@H](N)[C@H](C)C3)c(-c3cnn(C(F)F)c3)cn2)n1 [Example 297, N-(4-((3R,4S)-4-amino-3-methylpiperidin-1-yl)-5-(1-(difluoromethyl)-1H-pyrazol-4-yl)pyridin-2-yl)-2-(2-fluoro-6-methoxyphenyl)pyrimidin-4-amine hydrochloride]
COc1cccc(F)c1-c1nccc(Nc2cc(N3CCC[C@H](N)C3)c(-c3cnn([C@H]4CCOC4)c3)cn2)n1 [Example 298, N-(4-((S)-3-aminopiperidin-1-yl)-5-(1-((S)-tetrahydrofuran-3-yl)-1H-pyrazol-4-yl)pyridin-2-yl)-2-(2-fluoro-6-methoxyphenyl)pyrimidin-4-amine hydrochloride]
COc1cccc(F)c1-c1nccc(Nc2cc(N3CCC[C@H](N)C3)c(-c3cnn([C@@H]4CCOC4)c3)cn2)n1 [Example 299, N-(4-((S)-3-aminopiperidin-1-yl)-5-(1-((R)-tetrahydrofuran-3-yl)-1H-pyrazol-4-yl)pyridin-2-yl)-2-(2-fluoro-6-methoxyphenyl)pyrimidin-4-amine hydrochloride]
COc1cccc(F)c1-c1nc(Nc2cc(N3CCC[C@H](N)C3)c(-c3cnn(C4CCOCC4)c3)cn2)ccc1C#N [Example 300, 6-((4-((S)-3-aminopiperidin-1-yl)-5-(1-(tetrahydro-2H-pyran-4-yl)-1H-pyrazol-4-yl)pyridin-2-yl)amino)-2-(2-fluoro-6-methoxyphenyl)nicotinonitrile hydrochloride]
COc1cccc(F)c1-c1nc(Nc2cc(N3CCC[C@H](N)C3)c(-c3cnn(C(F)F)c3)cn2)ccc1C#N [Example 301, 6-((4-((S)-3-aminopiperidin-1-yl)-5-(1-(difluoromethyl)-1H-pyrazol-4-yl)pyridin-2-yl)amino)-2-(2-fluoro-6-methoxyphenyl)nicotinonitrile hydrochloride]
COc1cccc(F)c1-c1nccc(Nc2cc(N3CC[C@H](N)[C@@H](F)C3)c(-c3cnn(C(F)F)c3)cn2)n1 [Example 302, N-(4-((3S,4S)-4-amino-3-fluoropiperidin-1-yl)-5-(1-(difluoromethyl)-1H-pyrazol-4-yl)pyridin-2-yl)-2-(2-fluoro-6-methoxyphenyl)pyrimidin-4-amine hydrochloride]
COc1cccc(F)c1-c1nccc(Nc2cc(N3C[C@@H](N)C[C@@H](F)C3)c(-c3cnn(C(F)F)c3)cn2)n1 [Example 303, N-(4-((3S,5R)-3-amino-5-fluoropiperidin-1-yl)-5-(1-(difluoromethyl)-1H-pyrazol-4-yl)pyridin-2-yl)-2-(2-fluoro-6-methoxyphenyl)pyrimidin-4-amine hydrochloride]
COc1cccc(F)c1-c1nccc(Nc2cc(N3C[C@@H](N)C[C@H](F)C3)c(-c3cnn(C(F)F)c3)cn2)n1 [Example 304, N-(4-((3S,5S)-3-amino-5-fluoropiperidin-1-yl)-5-(1-(difluoromethyl)-1H-pyrazol-4-yl)pyridin-2-yl)-2-(2-fluoro-6-methoxyphenyl)pyrimidin-4-amine hydrochloride]
COc1cccc(F)c1-c1nccc(Nc2cc(N3C[C@@H](N)C[C@@H](C(F)(F)F)C3)c(-c3cnn(C(F)F)c3)cn2)n1 [Example 305, N-(4-((3S,5R)-3-amino-5-(trifluoromethyl)piperidin-1-yl)-5-(1-(difluoromethyl)-1H-pyrazol-4-yl)pyridin-2-yl)-2-(2-fluoro-6-methoxyphenyl)pyrimidin-4-amine hydrochloride]
COc1cccc(F)c1-c1nccc(Nc2cc(N3C[C@@H](N)C[C@H](O)C3)c(-c3cnn(C(F)F)c3)cn2)n1 [Example 306, (3S,5S)-5-amino-1-(5-(1-(difluoromethyl)-1H-pyrazol-4-yl)-2-((2-(2-fluoro-6-methoxyphenyl)pyrimidin-4-yl)amino)pyridin-4-yl)piperidin-3-ol hydrochloride]
